Assay results taken from patent US5610154A, “Bicyclic carboxamides” (John Wyeth & Brother, Ltd., priority 1994, dated 1997).

Target: T1, 5-HT1A receptor (Rattus norvegicus, UniProt P19327)
T1 construct: rat hippocampal membrane homogenate; from tissue; host or cells: rat hippocampus, membrane homogenate
T1 sequence (P19327 1-422): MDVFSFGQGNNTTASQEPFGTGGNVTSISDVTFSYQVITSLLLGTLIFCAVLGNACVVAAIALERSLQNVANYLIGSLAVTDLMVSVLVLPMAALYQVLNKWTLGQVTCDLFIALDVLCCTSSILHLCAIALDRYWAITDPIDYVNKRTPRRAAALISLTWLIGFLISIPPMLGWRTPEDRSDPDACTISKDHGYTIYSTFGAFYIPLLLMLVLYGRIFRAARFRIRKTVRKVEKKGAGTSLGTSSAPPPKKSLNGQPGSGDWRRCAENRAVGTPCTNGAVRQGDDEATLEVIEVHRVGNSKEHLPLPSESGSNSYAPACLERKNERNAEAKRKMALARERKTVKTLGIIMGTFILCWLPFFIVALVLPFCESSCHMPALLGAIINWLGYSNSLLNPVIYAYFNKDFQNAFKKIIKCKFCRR
Experiment: 5-HT1A receptor binding activity in rat hippocampal membrane homogenate (method of B. S. Alexander and M. D. Wood)
Protocol: The compounds of the invention are tested for 5-HT1A receptor binding activity in rat hippocampal membrane homogenate by the method of B. S. Alexander and M. D. Wood, J. Pharm. Pharmacol., 1988, 40, 888-891.

| Compound | IC50 |
| --- | --- |
| COc1ccccc1N1CCN(CCC(C(=O)N2CC3CC=CCC3C2)c2ccccc2)CC1 (centres unmarked) [Example 16, 1-(1,3,3a,4,7,7a-Hexahydroisoindol-2-yl)-4-[4-(2-methoxyphenyl)piperazin-1-yl]-2-phenylbutan-1-one] | 4.46 nM |
| O=C(C(CCN1CCN(c2ccccn2)CC1)c1ccccc1)N1C2CCCC1CC2 (centres unmarked) [Example 8, 1-(8-Aza-bicyclo[3.2.1]oct-8-yl)-2-phenyl-4-[4-(pyridin-2-yl)-piperazin-1-yl]-butan-1-one] | 3.5 nM |
| COc1ccc(F)cc1N1CCN(CCC(C(=O)N2C3CCCC2CC3)c2ccccc2)CC1 (centres unmarked) [Example 2, 1-(8-Aza-bicyclo[3.2.1]oct-8-yl)-4-[4-(5-fluoro-2-methoxy-phenyl)-piperazin-1-yl]-2-phenyl-butan-1-one] | 1.48 nM |
| O=C(C(CCN1CCN(c2ncccc2C(F)(F)F)CC1)c1ccccc1)N1C2CCCC1CC2 (centres unmarked) [Example 10] | 17.9 nM |
| O=C(C(CCN1CCN(c2cccc3[nH]ccc23)CC1)c1ccccc1)N1C2CCCC1CC2 (centres unmarked) [Example 5, 1-(8-Aza-bicyclo[3.2.1]oct-8-yl)-4-[4-(1H-indol-4-yl)-piperazin-1-yl]-2-phenyl-butan-1-one] | 3.73 nM |
| COc1ccccc1N1CCN(CCC(C(=O)N2C3CCCC2CC3)c2ccccc2)CC1 (centres unmarked) [Example 1, 1-(8-Aza-bicyclo[3.2.1]oct-8-yl)-4-[4-(2-methoxy-phenyl)-piperazin-1-yl]-2-phenyl-butan-1-one] | 3.3 nM |
| COc1ccccc1N1CCN(CCC(C(=O)N2CC3CCC(CC3)C2)c2ccccc2)CC1 (centres unmarked) [Example 15] | 0.58 nM |
| O=C(C(CCN1CCN(c2cccc3[nH]ccc23)CC1)c1ccccc1)N1CC2CCC(CC2)C1 (centres unmarked) [Example 14, 1-(3-Aza-bicyclo[3.2.2]non-3-yl)-4-[4-(1H-indol-4-yl)-piperazin-1-yl]-2-phenylbutan-1-one] | 1.96 nM |
